According to a melting point compilation (Tetko et al.):

Row | Compound | melting point [°C]
1 | CCCC(=O)N1CCCCC1C(=O)O (stereo unspecified) | 63 to 65
2 | CC(C)NC(=O)NCc1ccc(C(=O)O)cc1 | 168 to 170
3 | CC(Oc1ccccc1Cc1ccccc1)C(=O)O (stereo unspecified) | 91 to 93
4 | O=C(O)COc1ccc2oc3c(c2c1)CCCC3 | 188 to 190
5 | CCOC(=O)c1cc(C)nc(-c2ccccc2)n1 | 94 to 96
6 | O=c1[nH]c(-c2ccccn2)nc2c1CCC2 | 178 to 180
7 | N#Cc1cc(Cl)ccc1OCC(F)(F)F | 66 to 68
8 | CC(C)c1ccc(SCC(=O)O)cc1 | 66 to 68
9 | Cc1ccc(N(CCC#N)C(=O)CCl)cc1 | 56 to 58
10 | CC(O)(C(=O)O)c1ccc(Cl)cc1 (stereo unspecified) | 129 to 131
11 | CC(Cl)c1nc2scc(-c3cccs3)c2c(=O)[nH]1 (stereo unspecified) | 241 to 243
12 | N#CCC(=O)c1c[nH]c2cc(Cl)ccc12 | 293 to 295
13 | CC(C)CN1CCCCC1C(=O)O (stereo unspecified) | 198 to 200
14 | O=C(NCCO)c1cccc(S(=O)(=O)N2CCCCC2)c1 | 65 to 68
15 | Cc1ccc(N2CCc3c(N)cccc3C2)nn1 | 144 to 146
16 | O=C(O)c1cnn(-c2cccc(C(F)(F)F)c2)c1C1CC1 | 172 to 174
17 | O=C(CCl)N1CCc2ccccc21 | 118 to 120
18 | O=C1CC2(CCCCC2)CN1 | 89 to 91
19 | Nc1[nH]ncc1-c1nc2cc(Cl)ccc2s1 | 274 to 276
20 | Cn1cc(C(=O)O)c(-c2cccs2)n1 | 179 to 181
21 | O=C(NC=C(Cl)Cl)c1cccc(Br)c1 | 91 to 93
22 | CCc1ccccc1-n1cc(O)c(C(=O)O)n1 | 101 to 103
23 | CC(=O)c1cc(N)cc(C(C)=O)c1 | 139 to 141

Row | Compound | melting point [°C]
24 | COC(=O)c1cccc(OC)c1O | 65 to 68
25 | OCc1ccc2cn[nH]c2c1 | 158 to 160
26 | O=S(=O)(Cl)c1cncc(F)c1 | 35 to 37
27 | Cc1cccc(Oc2ccc(N)cn2)c1C | 68 to 70
28 | O=C(O)c1c2c(nc3ccc(Br)cc13)CCCC2 | 291 to 293
29 | NS(=O)(=O)CCOc1ccccc1 | 102 to 104
30 | O=c1c2ccccc2oc2ccc([N+](=O)[O-])cc12 | 203 to 205
31 | CC1(C)CCc2[nH]c(=O)c(C(=O)O)cc2C1 | 242 to 244
32 | O=C(O)c1ccccc1NS(=O)(=O)c1ccc(Cl)c([N+](=O)[O-])c1 | 211 to 213
33 | Brc1nn2cc(-c3cccnc3)nc2s1 | 230 to 232
34 | COc1cc(NC(=O)C2CCCCC2)c(C(=O)O)cc1OC | 155 to 157
35 | O=C(O)CNC(=O)CNS(=O)(=O)Cc1ccc(F)cc1 | 198 to 200
36 | Cc1sc(N)nc1-c1ccc(Br)cc1 | 147 to 149
37 | COC(=O)c1nc(Cl)ccc1Cl | 53 to 55
38 | COc1cccc(-c2cc(N)n(-c3ccc(C)cc3)n2)c1 | 109 to 111
39 | O=C(O)C1(O)Cc2ccccc2C1 | 176 to 178
40 | COc1ccc(NC(=O)c2c(N)sc3c2CCCC3)cc1 | 158 to 160
41 | CCc1ccc(C(=O)N2CCC(C(=O)O)CC2)o1 | 112 to 114
42 | Cc1ccc(-c2nnc(N)[nH]2)c(C)c1 | 211 to 213
43 | CCOc1cc(C(=O)O)ccc1OCc1cccnc1 | 185 to 187
44 | O=C(O)Cn1nnc(-c2cccs2)n1 | 220 to 222
45 | NCCC(=O)Nc1ccccc1 | 62 to 64
46 | CC(=O)NCc1ccc(S(N)(=O)=O)cc1 | 170 to 172

Row | Compound | melting point [°C]
47 | CC(O)c1cc2ccccc2o1 (stereo unspecified) | < 17
48 | O=C(O)c1csc(-c2ccc([N+](=O)[O-])cc2)n1 | 198 to 200
49 | NCCn1ncc2ccccc2c1=O | 87 to 89
50 | C=CC(=O)Nc1ccc(Br)cc1 | 197 to 199
51 | Cc1cc(C#N)c(N)s1 | 100 to 102
52 | O=C1CN(Cc2ccnc(Cl)c2)CCN1 | 143 to 145
53 | CC(=O)N1CCC(NC(=O)OCC(F)(F)F)CC1 | 115 to 124
54 | O=c1ccc(Cl)n[nH]1 | 138 to 140
55 | Nc1cc(C(=O)O)ccc1I | 209 to 211
56 | COC(=O)COc1ccc(Br)cc1 | 49 to 51
57 | Nc1cc(-c2ccc(Cl)cc2)nn1-c1ccccc1 | 191 to 193
58 | Nc1ccc2c(c1)CC(=O)N2 | 190 to 192
59 | O=C(Nc1cn[nH]c1)Oc1ccccc1 | 179 to 181
60 | O=S(=O)(Cl)c1cc2ccc(Cl)nc2cc1F | 128 to 130
61 | COc1cc(N)cc(OC)c1Br | 149 to 151
62 | O=C(O)c1nccnc1C(=O)NCc1ccc(F)cc1 | 170 to 172
63 | CC(NC(=O)c1ccc(Br)cc1)C(=O)O (stereo unspecified) | 138 to 140
64 | Clc1ccc(N2CCCC2)nn1 | 115 to 116
65 | COc1ccc(N2CCN(C(=O)CCCl)CC2)cc1 | 73 to 75
66 | O=C(O)c1cc(-c2ccc(F)cc2)nc2ccccc12 | 193 to 197
67 | O=C(O)C1CCN(C(=O)N2CCOCC2)CC1 | 131 to 133
68 | CSCc1ccc(C(=O)O)cc1 | 145 to 147

Now from value to compound:

Row | melting point [°C] | Compound
69 | 184 to 186 | O=C(O)c1c2c(nc3ccccc13)C(=Cc1ccc(Cl)c(Cl)c1)CC2
70 | 140 to 145 | Sc1nc2ccccc2n1-c1ccccc1
71 | 82 to 84 | ClC(Cl)c1nnc(-c2ccccc2)o1
72 | 227 to 229 | O=C(O)c1nn(-c2ccc(F)cc2)cc1O
73 | 116 to 118 | O=C(O)CNC(=O)CC1CCCCC1
74 | 147 to 149 | CC(C)(CC(=O)c1ccc(Cl)cc1)C(=O)O
75 | 173 to 175 | CC(Sc1ncn[nH]1)C(=O)O (stereo unspecified)
76 | 68 to 70 | Cn1ccc(C(=O)c2ccc(F)cc2)n1
77 | 193 to 195 | COc1ccccc1Oc1ccc(C(N)=S)cc1
78 | 268 to 270 | Cc1c(O)ccc2c(CCl)cc(=O)oc12
79 | 80 to 82 | Cc1cc(C(=O)CCl)c(C)n1CCc1ccccc1
80 | 76 to 78 | Brc1ccc(NCc2ccccn2)cc1
81 | 208 to 210 | N#Cc1c(N2CCCC2)n[nH]c1N
82 | 39 to 41 | CCCCOc1cc(C=O)ccc1OC
83 | 75 to 77 | CC(=O)NCc1cccc(Br)c1
84 | 175 to 178 | O=C(O)c1ccc(F)c(S(=O)(=O)N2CCOCC2)c1
85 | 297 to 299 | O=C(O)c1ccc(S(=O)(=O)Nc2ccncc2)cc1

Row | melting point [°C] | Compound
86 | 80 to 82 | O=C1C(Br)CCCN1c1ccccc1 (stereo unspecified)
87 | 48 to 50 | c1cnc2c(NC3CCC3)cccc2c1
88 | 138 to 140 | NC(=S)NC1CC1
89 | 97 to 99 | NS(=O)(=O)CC(F)(F)F
90 | 57 to 59 | CCOC(=O)c1cc(Cl)cc(Br)c1N
91 | 145 to 147 | COc1cc(C(=O)O)on1
92 | 98 to 100 | O=C1c2ccccc2C(=O)N1CC1CO1 (stereo unspecified)
93 | 68 to 70 | Cc1cc(C)c(C(=O)CCl)c(C)c1
94 | 112 to 114 | COCCCOc1ccc(C(=O)O)cc1
95 | 144 to 146 | CC(C)(C)C(=O)NCCc1ccc(S(N)(=O)=O)s1
96 | 80 to 82 | ClCc1ncc(-c2ccc(Br)cc2)o1
97 | 59 to 61 | COC(=O)c1ccc(Br)cc1F
98 | 123 to 125 | NCC(c1ccccc1)c1c[nH]c2ccccc12 (stereo unspecified)
99 | 155 to 165 | CCOc1ccc2oc(C(=O)O)c(C)c2c1
100 | 59 to 61 | COC(=O)Cc1ccc(S(=O)(=O)Cl)s1
101 | 75 to 77 | O=Cc1ccc(OCc2cccnc2)cc1
